Assay [1] deals with T1, FLAG-Uba1 (Homo sapiens, UniProt P22314).
T1 construct: GST- and FLAG-tagged human Uba1 in pBJ842, expressed in S. cerevisiae BJ5654, GST cleaved with PreScission protease, FLAG tag kept
T1 sequence (P22314 2-1058): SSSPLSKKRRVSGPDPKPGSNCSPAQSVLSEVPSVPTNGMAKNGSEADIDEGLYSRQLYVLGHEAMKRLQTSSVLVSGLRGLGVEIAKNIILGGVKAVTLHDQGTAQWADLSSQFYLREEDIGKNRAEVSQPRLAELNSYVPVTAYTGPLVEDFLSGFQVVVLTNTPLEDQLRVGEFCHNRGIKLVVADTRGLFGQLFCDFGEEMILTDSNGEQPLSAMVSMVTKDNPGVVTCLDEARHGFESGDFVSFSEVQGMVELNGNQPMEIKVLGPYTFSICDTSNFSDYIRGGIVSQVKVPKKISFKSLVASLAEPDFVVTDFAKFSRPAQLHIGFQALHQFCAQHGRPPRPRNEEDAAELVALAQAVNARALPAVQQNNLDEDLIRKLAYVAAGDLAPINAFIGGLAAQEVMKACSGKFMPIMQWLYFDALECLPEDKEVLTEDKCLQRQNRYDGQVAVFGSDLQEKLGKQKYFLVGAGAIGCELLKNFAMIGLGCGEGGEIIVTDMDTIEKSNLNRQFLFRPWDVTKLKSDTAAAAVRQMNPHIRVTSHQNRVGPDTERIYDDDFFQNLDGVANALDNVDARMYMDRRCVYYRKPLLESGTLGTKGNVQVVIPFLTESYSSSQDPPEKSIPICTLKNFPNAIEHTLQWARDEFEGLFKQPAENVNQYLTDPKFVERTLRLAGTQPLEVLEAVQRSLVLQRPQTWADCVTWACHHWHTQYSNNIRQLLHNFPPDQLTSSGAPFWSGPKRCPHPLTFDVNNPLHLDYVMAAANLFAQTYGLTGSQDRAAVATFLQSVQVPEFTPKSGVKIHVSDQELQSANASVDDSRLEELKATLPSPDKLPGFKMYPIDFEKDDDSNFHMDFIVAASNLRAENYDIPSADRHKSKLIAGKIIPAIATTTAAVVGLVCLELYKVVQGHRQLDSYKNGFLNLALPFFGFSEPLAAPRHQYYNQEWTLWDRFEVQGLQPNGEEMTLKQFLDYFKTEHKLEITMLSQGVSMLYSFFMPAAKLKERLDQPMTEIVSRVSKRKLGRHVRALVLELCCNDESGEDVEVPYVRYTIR
Kind of assay: AlphaScreen Uba1~ubiquitin thioester formation. The class given is biochemical. On the technique in general: Alpha assays give light when donor and acceptor beads are brought close together.

Assay [2] has as its target T1, FLAG-Uba1. Briefly: AlphaScreen Uba1~ubiquitin thioester formation. To be noted: read-out: IC50for inhibition of PCNA ubiquitination (Alpha). Type of assay: biochemical. An excerpt:
AlphaScreen Uba1~ubiquitin thioester formation on FLAG-Uba1

The mark [3] stands for this setting: read-out: IC50for inhibition of Uba1~Ub thioester formation (Alpha).
Where [4] appears, read: read-out: IC50for inhibition of PCNA ubiquitination (Alpha).

Like-named read-outs stand apart in the source and are kept apart here.

Regarding `Oc1cc(O)c2c(c1)O[C@H](c1ccc(O)c(O)c1)[C@@H](O)C2` [Cat], the IC50 on FLAG-Uba1 [1] (read-out: IC50for inhibition of PCNA ubiquitination (Western blot) [19]) is more than 500 µM.

Regarding `CCCCCCCCCCCCOC(=O)c1cc(O)c(O)c(O)c1` [DG], at FLAG-Uba1 [1] (setting [3]), the IC50 turned out to be 44.4 µM.

Turning to `O=C1c2c(O)cc(O)cc2O[C@H](c2cc(O)c(O)c(O)c2)[C@H]1O` [DM], the IC50 at FLAG-Uba1 [1] (setting [3]) was 27.5 µM.

In the case of `O=C(O[C@@H]1Cc2c(O)cc(O)cc2O[C@@H]1c1ccc(O)c(O)c1)c1cc(O)c(O)c(O)c1` [ECG], the IC50 at FLAG-Uba1 [1] (setting [3]) came to 0.769 µM.

Turning to `Oc1cc(O)c2c(c1)O[C@H](c1ccc(O)c(O)c1)[C@H](O)C2` [EC], the IC50 at FLAG-Uba1 [1] (setting [4]) was more than 500 µM.

`Oc1cc(O)c2c(c1)O[C@H](c1cc(O)c(O)c(O)c1)[C@H](O)C2` [EGC]: the IC50 on FLAG-Uba1 [1] (setting [3]) amounted to 5.96 µM.

On to `O=C(O)c1cc(O)c(O)c(O)c1` [GA], for which, on FLAG-Uba1 [2], the IC50 was more than 500 µM.

Turning to `O=c1c(O)c(-c2cc(O)c(O)c(O)c2)oc2cc(O)cc(O)c12` [Myr], the IC50 at FLAG-Uba1 [1] (setting [3]) came out at 1.59 µM.

For `CCCCCCCCOC(=O)c1cc(O)c(O)c(O)c1` [OG], on FLAG-Uba1 [1] (15 min preincubation, biotin-ubiquitin, 2 mM ATP, 8 mM MgCl2, pH 7.5, 25 °C, 30 min, 1% DMSO, read-out: IC50for inhibition of Uba1~Ub thioester formation (Alpha)), the IC50 amounted to 13.4 µM.

As for `CCCOC(=O)c1cc(O)c(O)c(O)c1` [PG], at FLAG-Uba1 [1] (setting [4]), the IC50 was more than 500 µM.

These data come from PMC7106726, “Robust high-throughput assays to assess discrete steps in ubiquitination and related cascades” (BMC Molecular and Cell Biology, 2020).
